Measurements: the NIST ThermoML archive (doi:10.1016/j.jct.2017.07.016)

Key:
[1] = 96.7 kPa, Liquid; for viscosity: Capillary tube (Ostwald / Ubbelohde) method; for mass density: Vibrating tube method
[2] = xn = mol fraction of the nth substance listed; details: 96.7 kPa, Liquid, x2 = 0; for viscosity: Capillary tube (Ostwald / Ubbelohde) method; for mass density: Vibrating tube method

CCCCCCn1cc[n+](C)c1.[Cl-] [1-hexyl-3-methylimidazolium chloride]
[1]
Details	mass density [kg/m3]	viscosity [mPa·s]
303.15 K	1036.07	5718.5
308.15 K	1033.22	3430.8
313.15 K	1030.38	2146.1
318.15 K	1027.56	1390.4
323.15 K	1024.75	928.1
328.15 K	1021.92	638.79
333.15 K	1019.13	453.59
338.15 K	1016.38	327.52
343.15 K	1013.65	243.04
348.15 K	1010.91	183.45
353.15 K	1008.18	140.06

CC(=O)N(C)C [N,N-dimethylethanamide]
[1]
Details	mass density [kg/m3]	viscosity [mPa·s]
303.15 K	931.85	0.891
308.15 K	927.26	0.834
313.15 K	922.66	0.785
318.15 K	918.06	0.739
323.15 K	913.44	0.698
328.15 K	908.81	0.661
333.15 K	904.16	0.627
338.15 K	899.53	0.598
343.15 K	894.87	0.567
348.15 K	890.19	0.541
353.15 K	885.51	0.516

CC(=O)N(C)C [N,N-dimethylethanamide] + CCCCCCn1cc[n+](C)c1.[Cl-]
[2]
Details	mass density [kg/m3]	viscosity [mPa·s]
303.15 K	931.85	0.891
308.15 K	927.26	0.834
313.15 K	922.66	0.785
318.15 K	918.06	0.739
323.15 K	913.44	0.698
328.15 K	908.81	0.661
333.15 K	904.16	0.627
338.15 K	899.53	0.598
343.15 K	894.87	0.567
348.15 K	890.19	0.541
353.15 K	885.51	0.516

C[S+](C)[O-] [dimethyl sulfoxide]
[1]
Details	mass density [kg/m3]	viscosity [mPa·s]
303.15 K	1090.29	1.8
308.15 K	1085.28	1.665
313.15 K	1080.3	1.529
318.15 K	1075.31	1.407
323.15 K	1070.32	1.304
328.15 K	1065.33	1.211
333.15 K	1060.34	1.127
338.15 K	1055.34	1.056
343.15 K	1050.35	0.989
348.15 K	1045.34	0.931
353.15 K	1040.33	0.878

C[S+](C)[O-] [dimethyl sulfoxide] + CCCCCCn1cc[n+](C)c1.[Cl-]
[2]
Details	mass density [kg/m3]	viscosity [mPa·s]
303.15 K	1090.29	1.8
308.15 K	1085.28	1.665
313.15 K	1080.3	1.529
318.15 K	1075.31	1.407
323.15 K	1070.32	1.304
328.15 K	1065.33	1.211
333.15 K	1060.34	1.127
338.15 K	1055.34	1.056
343.15 K	1050.35	0.989
348.15 K	1045.34	0.931
353.15 K	1040.33	0.878

CN(C)C=O [dimethylformamide]
[1]
Details	mass density [kg/m3]	viscosity [mPa·s]
303.15 K	939.18	0.766
308.15 K	934.41	0.723
313.15 K	929.64	0.685
318.15 K	924.86	0.651
323.15 K	920.07	0.619
328.15 K	915.26	0.589
333.15 K	910.44	0.562
338.15 K	905.6	0.537
343.15 K	900.74	0.514
348.15 K	895.87	0.493
353.15 K	890.98	0.473

CN(C)C=O [dimethylformamide] + CCCCCCn1cc[n+](C)c1.[Cl-]
[2]
Details	mass density [kg/m3]	viscosity [mPa·s]
303.15 K	939.18	0.766
308.15 K	934.41	0.723
313.15 K	929.64	0.685
318.15 K	924.86	0.651
323.15 K	920.07	0.619
328.15 K	915.26	0.589
333.15 K	910.44	0.562
338.15 K	905.6	0.537
343.15 K	900.74	0.514
348.15 K	895.87	0.493
353.15 K	890.98	0.473

c1ccncc1 [pyridine]
[1]
Details	mass density [kg/m3]	viscosity [mPa·s]
303.15 K	973.09	0.843
308.15 K	968.06	0.789
313.15 K	963.02	0.741
318.15 K	957.97	0.697
323.15 K	952.9	0.658
328.15 K	947.82	0.622
333.15 K	942.72	0.59
338.15 K	937.6	0.56
343.15 K	932.46	0.533
348.15 K	927.3	0.507
353.15 K	922.12	0.485

c1ccncc1 [pyridine] + CCCCCCn1cc[n+](C)c1.[Cl-]
[2]
Details	mass density [kg/m3]	viscosity [mPa·s]
303.15 K	973.09	0.843
308.15 K	968.06	0.789
313.15 K	963.02	0.741
318.15 K	957.97	0.697
323.15 K	952.9	0.658
328.15 K	947.82	0.622
333.15 K	942.72	0.59
338.15 K	937.6	0.56
343.15 K	932.46	0.533
348.15 K	927.3	0.507
353.15 K	922.12	0.485
